The record followed here is US8258134B2, “Pyridazinone glucokinase activators” (Hoffmann-La Roche Inc., priority 2008, dated 2012).

The first assay addresses T1, Recombinant human liver GK1 (GST-GK) (Homo sapiens, UniProt P35557).
T1 construct: made in house; host or cells: E. coli
T1 sequence (P35557 1-466 isoform P35557-2): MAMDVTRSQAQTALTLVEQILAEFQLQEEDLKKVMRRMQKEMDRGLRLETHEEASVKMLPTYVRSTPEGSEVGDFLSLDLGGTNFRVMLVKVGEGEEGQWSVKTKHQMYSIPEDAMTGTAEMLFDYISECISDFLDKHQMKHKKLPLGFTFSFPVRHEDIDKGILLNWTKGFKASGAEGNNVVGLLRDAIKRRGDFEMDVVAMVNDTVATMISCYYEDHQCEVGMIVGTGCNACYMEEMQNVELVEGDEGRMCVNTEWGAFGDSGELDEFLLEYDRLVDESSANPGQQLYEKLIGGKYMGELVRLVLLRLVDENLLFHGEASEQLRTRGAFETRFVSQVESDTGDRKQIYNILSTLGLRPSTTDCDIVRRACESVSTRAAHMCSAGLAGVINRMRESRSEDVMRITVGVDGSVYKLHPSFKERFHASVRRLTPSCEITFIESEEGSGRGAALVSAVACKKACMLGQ
Briefly: Glucokinase in vitro assay (G6PDH-coupled NADH generation, OD340). The conditions noted are these: 30 uM test compound, 5 mM D-glucose. It is filed as biochemical. As to the method:
Glucokinase In Vitro Assay Protocol: Glucokinase (GK) was assayed by coupling the production of glucose-6-phosphate to the generation of NADH with glucose-6-phosphate dehydrogenase (G6PDH, 0.75-1 k units/mg; Boehringer Mannheim, Indianapolis, Ind.) from Leuconostoc mesenteroides as the coupling enzyme (Scheme 2):
Recombinant human liver GK1 was expressed in E. coli as a glutathione S-transferase fusion protein (GST-GK) [Liang et al, 1995] and was purified by chromatography over a glutathione-Sepharose 4B affinity column using the procedure provided by the manufacturer (Amersham Pharmacia Biotech, Piscataway, N.J.).
The assay was conducted at 30° C. in a flat bottom 96-well tissue culture plate from Costar (Cambridge, Mass.) with a final incubation volume of 120 μL. The incubation reaction contained the following: 25 mM Hepes buffer (pH 7.1), 25 mM KCl, 5 mM D-glucose, 1 mM ATP, 1.8 mM NAD, 2 mM MgCl2, 1 μM sorbitol-6-phosphate, 1 mM dithiothreitol, test drug or 10% DMSO, ˜7 units/ml G6PDH, and GK (see below). All organic reagents were >98% pure and were from Boehringer Mannheim with the exceptions of D-glucose and Hepes which were from Sigma Chemical Co, St Louis, Mo. Test compounds were dissolved in DMSO and were added to the incubation reaction minus GST-GK in a volume of 12 μL to yield a final DMSO concentration of 10%. This mix was pre-incubated in the temperature controlled chamber of a SPECTRAmax 250 microplate spectrophotometer (Molecular Devices Corporation, Sunnyvale, Calif.) for 10 minutes to allow temperature equilibrium and then the reaction was started by the addition of 20 μL GST-GK.
After addition of enzyme, the increase in optical density (OD) at 340 nm was monitored spectrophotometrically to determine the rate of change (OD340 per min). The GK activity (OD340/min) in control wells (10% DMSO minus GK activators) was compared with the activity in wells containing test GK activators, and the concentration of activator that produced a 50% increase in the activity of GK, i.e., the SC1.5, was calculated. The table below provides the in vitro glucokinase activity for the compounds in the Examples: […]
With `Cn1ccc(NC(=O)C(CC2CCCC2)n2ncccc2=O)n1` (stereo not shown) [Example 82, 3-Cyclopentyl-N-(1-methyl-1H-pyrazol-3-yl)-2-(6-oxo-6H-pyridazin-1-yl)-propionamide], the “fold activation @ 30 uM” value is reported as 1.3 fold. The same measure, in the same setting: for `CC(=O)OC(C)Cn1nc(NC(=O)C(CC2CCOCC2)n2ncc(Oc3c(F)cccc3F)cc2=O)cc1C` (stereo not shown) [Example 131, Acetic acid 2-{3-[2-[4-(2,6-difluoro-phenoxy)-6-oxo-6H-pyridazin-1-yl]-3-(tetrahydro-pyran-4-yl)-propionylamino]-5-methyl-pyrazol-1-yl}-1-methyl-ethyl ester] the value was 1.18 fold.

Still in this assay, the particulars now being: 5 mM D-glucose, 30° C., pH 7.1, 10% DMSO.
In the case of `CC(C)(O)Cn1ccc(NC(=O)[C@@H](CC2CCCC2)n2ncc(Oc3ccccc3C#N)cc2=O)n1` [Example 29B, (R)-2-[4-(2-Cyano-phenoxy)-6-oxo-6H-pyridazin-1-yl]-3-cyclopentyl-N-[1-(2-hydroxy-2-methyl-propyl)-1H-pyrazol-3-yl]-propionamide], the “SC1.5 average (concentration of activator that produced a 50% increase in the activity of GK)” value came out at 11.185 µM. The same measure, in the same setting: for `CC(C)(O)Cn1ccc(NC(=O)[C@H](CC2CCCC2)n2ncc(Oc3cccc(F)c3F)cc2=O)n1` [Example 31A, (S)-3-Cyclopentyl-2-[4-(2,3-difluoro-phenoxy)-6-oxo-6H-pyridazin-1-yl]-N-[1-(2-hydroxy-2-methyl-propyl)-1H-pyrazol-3-yl]-propionamide] the value was 0.18 µM; for `CC(C)(O)Cn1ccc(NC(=O)C(CC2CCCC2)n2ncc(Sc3ccccc3)cc2=O)n1` (stereo not shown) [Example 123, 3-Cyclopentyl-N-[1-(2-hydroxy-2-methyl-propyl)-1H-pyrazol-3-yl]-2-(6-oxo-4-phenylsulfanyl-6H-pyridazin-1-yl)-propionamide], 0.441 µM.

`Cn1ccc(NC(=O)C(CC2CCCC2)n2ncccc2=O)n1` (stereo not shown) [Example 82, 3-Cyclopentyl-N-(1-methyl-1H-pyrazol-3-yl)-2-(6-oxo-6H-pyridazin-1-yl)-propionamide]: the “SC1.5 average (concentration of activator that produced a 50% increase in the activity of GK)” value is more than 30 µM. With `CCOc1ccc(F)c(Oc2cnn(C(CC3CCOCC3)C(=O)Nc3ccn(C[C@@H](O)CO)n3)c(=O)c2)c1F` (stereo partly drawn) [Example 121, N-[1-((R)-2,3-Dihydroxy-propyl)-1H-pyrazol-3-yl]-2-[4-(3-ethoxy-2,6-difluoro-phenoxy)-6-oxo-6H-pyridazin-1-yl]-3-(tetrahydro-pyran-4-yl)-propionamide], the “SC1.5 average (concentration of activator that produced a 50% increase in the activity of GK)” value was found to be 0.088 µM.

As to `Cc1ccccc1Oc1cnn([C@H](CC2CCCC2)C(=O)Nc2ccn(CC(C)(C)O)n2)c(=O)c1` [Example 24B, (R)-3-Cyclopentyl-N-[1-(2-hydroxy-2-methyl-propyl)-1H-pyrazol-3-yl]-2-(6-oxo-4-o-tolyloxy-6H-pyridazin-1-yl)-propionamide], the “SC1.5 average (concentration of activator that produced a 50% increase in the activity of GK)” value amounted to 5.88 µM. Still for that read-out and setting: for `CC(=O)OC(C)Cn1nc(NC(=O)C(CC2CCOCC2)n2ncc(Oc3c(F)cccc3F)cc2=O)cc1C` (stereo not shown) [Example 131, Acetic acid 2-{3-[2-[4-(2,6-difluoro-phenoxy)-6-oxo-6H-pyridazin-1-yl]-3-(tetrahydro-pyran-4-yl)-propionylamino]-5-methyl-pyrazol-1-yl}-1-methyl-ethyl ester] the value was more than 30 µM; for `CCC(CC)CC(C(=O)Nc1ccn(CCO)n1)n1ncc(Oc2c(F)cccc2F)cc1=O` (stereo not shown) [Example 54, 2-[4-(2,6-Difluoro-phenoxy)-6-oxo-6H-pyridazin-1-yl]-4-ethyl-hexanoic acid [1-(2-hydroxy-ethyl)-1H-pyrazol-3-yl]-amide], 0.544 µM; for `CC(C)(O)Cn1ccc(NC(=O)C(CC2CCCC2)n2ncc(Oc3cccc(F)c3F)cc2=O)n1` (stereo not shown) [Example 31, 3-Cyclopentyl-2-[4-(2,3-difluoro-phenoxy)-6-oxo-6H-pyridazin-1-yl]-N-[1-(2-hydroxy-2-methyl-propyl)-1H-pyrazol-3-yl]-propionamide], 0.209 µM. The same measure, in the same setting: for `CC(C)C[C@H](C(=O)Nc1ccn(CC(C)(C)O)n1)n1ncc(Oc2c(F)cccc2F)cc1=O` [Example 42B, (R)-2-[4-(2,6-Difluoro-phenoxy)-6-oxo-6H-pyridazin-1-yl]-4-methyl-pentanoic acid [1-(2-hydroxy-2-methyl-propyl)-1H-pyrazol-3-yl]-amide] the value was 5.981 µM; for `CC(C)(O)Cn1ccc(NC(=O)C(CC2CCCC2)n2ncc(S(=O)(=O)c3ccccc3)cc2=O)n1` (stereo not shown) [Example 125, 2-(4-Benzenesulfonyl-6-oxo-6H-pyridazin-1-yl)-3-cyclopentyl-N-[1-(2-hydroxy-2-methyl-propyl)-1H-pyrazol-3-yl]-propionamide], 2.611 µM. In the case of `CC(C)(O)Cn1ccc(NC(=O)[C@H](CC2CCCC2)n2ncc(Oc3c(F)cccc3F)cc2=O)n1` [Example 36A, (S)-3-Cyclopentyl-2-[4-(2,6-difluoro-phenoxy)-6-oxo-6H-pyridazin-1-yl]-N-[1-(2-hydroxy-2-methyl-propyl)-1H-pyrazol-3-yl]-propionamide], the “SC1.5 average (concentration of activator that produced a 50% increase in the activity of GK)” value stood at 0.034 µM.

`Cc1ccc(Oc2cnn(C(CC3CCCCC3)C(=O)Nc3ccn(CC(C)(C)O)n3)c(=O)c2)c(C)c1` (stereo not shown) [Example 117, 3-Cyclohexyl-2-[4-(2,4-dimethyl-phenoxy)-6-oxo-6H-pyridazin-1-yl]-N-[1-(2-hydroxy-2-methyl-propyl)-1H-pyrazol-3-yl]-propionamide]: the “SC1.5 average (concentration of activator that produced a 50% increase in the activity of GK)” value is 0.352 µM.

Regarding `COC(=O)c1ccc(NC(=O)[C@H](CC2CCCC2)n2ncc(Oc3c(F)cccc3F)cc2=O)nc1` [Example 68A, 6-{(S)-3-Cyclopentyl-2-[4-(2,6-difluoro-phenoxy)-6-oxo-6H-pyridazin-1-yl]-propionylamino}-nicotinic acid methyl ester], the “SC1.5 average (concentration of activator that produced a 50% increase in the activity of GK)” value is 0.008 µM. On the same count and under the same terms, for `Cc1ccccc1Oc1cnn(C(CC2CCCC2)C(=O)Nc2ccc(C(=O)O)cn2)c(=O)c1` (stereo not shown) [Example 74, 6-[3-Cyclopentyl-2-(6-oxo-4-o-tolyloxy-6H-pyridazin-1-yl)-propionylamino]-nicotinic acid] the value was 0.067 µM; for `Cc1cc(C)nc(Oc2cnn(C(CC3CCCC3)C(=O)Nc3ccn(C[C@@H](O)CO)n3)c(=O)c2)n1` (stereo partly drawn) [Example 102, 3-Cyclopentyl-N-[1-((R)-2,3-dihydroxy-propyl)-1H-pyrazol-3-yl]-2-[4-(4,6-dimethyl-pyrimidin-2-yloxy)-6-oxo-6H-pyridazin-1-yl]-propionamide], 0.56 µM. The same measure, in the same setting: the same measure for `CC(C)(O)Cn1ccc(NC(=O)C(CC2CCCC2)n2ncc(Cc3ccccc3C(F)(F)F)cc2=O)n1` (stereo not shown) [Example 46, 3-Cyclopentyl-N-[1-(2-hydroxy-2-methyl-propyl)-1H-pyrazol-3-yl]-2-[6-oxo-4-(2-trifluoromethyl-benzyl)-6H-pyridazin-1-yl]-propionamide]: 1.947 µM; for `CC(C)(O)Cn1ccc(NC(=O)[C@@H](CC2CCCCC2)n2ncc(Oc3c(F)cccc3F)cc2=O)n1` [Example 51B, (R)-3-Cyclohexyl-2-[4-(2,6-difluoro-phenoxy)-6-oxo-6H-pyridazin-1-yl]-N-[1-(2-hydroxy-2-methyl-propyl)-1H-pyrazol-3-yl]-propionamide]: 0.838 µM.

As for `O=C(Nc1ccn(C[C@@H](O)CO)n1)C(CC1CCCC1)n1ncc(OCCc2ccccc2Cl)cc1=O` (stereo partly drawn) [Example 114, 2-{4-[2-(2-Chloro-phenyl)-ethoxy]-6-oxo-6H-pyridazin-1-yl}-3-cyclopentyl-N-[1-((R)-2,3-dihydroxy-propyl)-1H-pyrazol-3-yl]-propionamide], the “SC1.5 average (concentration of activator that produced a 50% increase in the activity of GK)” value worked out at 1.656 µM. On the same count and under the same terms, for `O=C(Nc1ccn(C[C@@H](O)CO)n1)C(Cc1c(F)cccc1F)n1ncc(Oc2c(F)cccc2F)cc1=O` (stereo partly drawn) [Example 108, 2-[4-(2,6-Difluoro-phenoxy)-6-oxo-6H-pyridazin-1-yl]-3-(2,6-difluoro-phenyl)-N-[1-((R)-2,3-dihydroxy-propyl)-1H-pyrazol-3-yl]-propionamide] the value was 0.521 µM.
